Where two headings read alike, the source gives them in different places. Marks after values point to notes of the source that are not given here.
Experiments:
[1] = system: Lung NCI-H460 cells; set-up: method as in PMID 29258181, PMID 12507923, PMID 35770045, PMID 31488557; conditions: cited from earlier work
[2] = system: Lung A549 cells; set-up: method as in PMID 29258181, PMID 12507923, PMID 35770045, PMID 31488557; conditions: cited from earlier work
[3] = system: Lung NCI-H1975 cells; set-up: method as in PMID 29258181, PMID 12507923, PMID 35770045, PMID 31488557; conditions: cited from earlier work
[4] = system: Ovary SKOV3 cells; set-up: method as in PMID 29258181, PMID 12507923, PMID 35770045, PMID 31488557; conditions: cited from earlier work
[5] = system: Acute promyelocytic HL60 leukemia cells; set-up: method as in PMID 29258181, PMID 12507923, PMID 35770045, PMID 31488557; conditions: cited from earlier work
[6] = cited from earlier work
[7] = system: NCI-H460 NSCLC cells; conditions: drug alone, 48 h, 4SP65/cisplatin study
Text: To test anticancer effectiveness of individual drugs or drug combinations, the CyQUANT®-NF proliferation assay was used with a plate reader (i) to generate standard curves for cell numbers for each cell line, (ii) to measure the starting cell numbers at initiation of drug treatment, and (iii) to obtain fluorescence readings from cells in 96-well plates for comparisons to a standard curve for the relevant cancer cell line and quantifying cell viability after drug treatments. […] Trypan blue exclusion was used to estimate cell numbers in a few pilot experiments and thereafter was applied to confirm very low viable cell numbers and cell death.
A series of experiments was conducted to determine the relative efficacy of 4SP65, 1LP65, and amifostine as single agents in the same human cancer cell lines.
Five metrics were calculated and used to characterize the shape of the dose-response curve following exposure to a single test agent. Using cell numbers based on fluorescence measurements and standard curves, the percentage growth was calculated at each drug concentration level. The percentage of growth inhibition was calculated as follows:
where Tz = cell numbers or fluorescence counts at time xero, C = vehicle-exposed control cell numbers at the end of the assessment time period, and Ti = test agent-exposed cell numbers or fluorescence counts at each drug concentration. […] The LC50/99 was calculated using Equation 2 = -50 and Eq. 2 = -99, respectively. […] For NHMECs, the relationships between drug exposure levels and fluorescence units were used to define dose-response metrics. The selectivity index values for individual drugs were calculated using IC50 levels in NHMECs divided by the IC50 value for each cancer cell line. Statistical comparisons of differences in individual dose-response metrics between drug treatments and cell lines were conducted using Student’s t-test, with P-values <0.05 considered significant.
Relative cell growth inhibition values for differing levels of each drug alone and in combination were input into SynergyFinder to generate dose-response curves for each drug alone and to produce a dose-response matrix. The dose-response matrix data then were used in generating a two-dimension heatmap and three-dimension volcano plot to visualize the distribution of areas of differing degrees of synergism and to calculate average and maximum synergy scores in selected human cancer cell lines. The expected drug combination responses were calculated using both the Highest Single Agent (HSA) model and the Zero interaction potency (ZIP) model.

[8] = system: Ovary SKOV3 cells; conditions: cited from earlier work; for GI50 / TGI: ref NCI Database of Screening Results
[9] = system: Mammary gland MDA-MB-231 cells; conditions: cited from earlier work; for GI50: ref NCI Database of Screening Results
[10] = system: Prostate PC3 cells; conditions: cited from earlier work
[11] = system: Ovary TOV21G cells; test: cells
Method: (§1) The percentage of growth inhibition was calculated as follows: […]

[12] = system: Ovary SKOV3 cells; test: cells
Method: as §1

[13] = system: A549 NSCLC cells; test: cells
Method: as §1

[14] = system: human cancer cell lines; test: cells; conditions: for cytolytic effects: exposure levels up to 500 µM, 48 h; for GI50: Homo sapiens
Method: as §1

[15] = system: Malignant pleural mesothelioma PPMMill cells; test: cells; conditions: 48 h
Method: as §1

[16] = system: Lung NCI-H460 cells; conditions: cited from earlier work; for GI50 / TGI: ref NCI Database of Screening Results
[17] = system: Prostate DU145 cells; set-up: method as in NCI Database of Screening Results; conditions: ref NCI Database of Screening Results; cited from earlier work
[18] = system: Lung A549 cells; conditions: cited from earlier work; for GI50 / TGI: ref NCI Database of Screening Results
[19] = system: Malignant pleural mesothelioma HMESO1 cells; conditions: drug alone, 48 h, 4SP65/cisplatin study
Method: as §1

[20] = system: temperature-dependent p53 mutants; set-up: method as in PMID 11429700, PMID 11870884, PMID 22710932, PMID 17724467; conditions: 11 temperature-dependent mutants analyzed; cited from earlier work
[21] = system: Acute promyelocytic HL60 leukemia cells; conditions: cited from earlier work
[22] = system: human Hec50co (p53-null) endometrial tumor xenografts; conditions: single agent; cited from earlier work
[23] = system: Mammary gland HCC38 cells; test: CyQUANT-NF proliferation assay, 48-h drug treatment; type: cell-based; conditions: 48-h treatment, amifostine ND = not definable up to 500 µM
[24] = system: Mammary gland MDA-MB-231 cells; test: as above; type: cell-based; conditions: Homo sapiens, MDA-MB-231; 48-h treatment; amifostine ND = not definable up to 500 µM
Method: Since the BRG prodrugs are composed of WR1065 as one of the major constituents, assays were conducted to determine if factors reported to modulate the activity of amino acid and polyamine plasma membrane transport systems impacted the efficacy of 4SP65 or 1LP65 in selected cancer cell lines. HL60 cells were exposed to 4SP65 with up to 0.5 mM NaCl, MBA-MD-231 cells were tested in the presence and absence of medium supplemented with estradiol plus insulin (in the BulletKit™ for growth supplements for NHMECs), HCC38 cells were exposed to 4SP65 with and without 10 µM insulin added to the growth medium, and multiple cells lines were pretreated for 24 h with 1 mM DFMO prior to starting exposures to 4SP65.
as §1

[25] = system: Prostate PC3 cells; test: cells
Method: as §1

[26] = system: NCI-H1975 NSCLC cells; test: cells; conditions: Homo sapiens, NCI-H1975, 48 h
Method: as §1

[27] = system: Prostate LNCaP cells; test: cells; conditions: Homo sapiens, LNCaP, 48 h
Method: as §1

[28] = system: Pancreas PANC-1 cells; test: cells; conditions: Homo sapiens, PANC-1, 48 h
Method: as §1

[29] = system: Prostate DU145 cells; test: cells; conditions: Homo sapiens, DU-145, 48 h
Method: as §1

[30] = system: Pancreas PANC-1 cells; set-up: method as in PMID 29258181, PMID 12507923, PMID 35770045, PMID 31488557; conditions: cited from earlier work
[31] = system: Mammary gland MDA-MB-231 cells; set-up: method as in PMID 29258181, PMID 12507923, PMID 35770045, PMID 31488557; conditions: cited from earlier work
[32] = ND = not definable, highest concentration in parentheses
[33] = ref NCI Database of Screening Results
[34] = drug alone, 48 h, 4SP65/cisplatin study
[35] = drug alone, 48 h, 4SP65/cisplatin study, ND = not definable, highest concentration in parentheses
[36] = drug alone, 4SP65/cisplatin study
[37] = drug alone, 4SP65/cisplatin study, ND = not definable, highest concentration in parentheses

COCC1(CO)C(=O)C2CCN1CC2 (stereo not drawn) [APR-246]
IC50 [1]: 225 µM
IC50 [2]: 29 µM
IC50 [3]: 9.6 µM
IC50 [4]: 16.7 µM
IC50 [5]: ~20 µM

COc1cc2ncnc(Nc3ccc(F)c(Cl)c3)c2cc1OCCCN1CCOCC1 [GEF, gefitinib, reference compound]
trough levels ([6]; 250 mg daily, after 3 days of treatment): 0.257−4.50 µM
trough levels ([6]; 250 mg daily, after 8 days of treatment): 0.282−6.55 µM
Cmax ([6]; 250 mg daily, printed 'or more', read-out: Cmax plasma concentrations): 500 to 1000 nM
elimination half-life [6]: 48 h

N.N.[Cl][Pt][Cl] [Cisplatin, cisplatin, reference compound]
GI50 [7]: 3.1 ± 0.1 µM
IC50 [7]: 4 ± 0.1 µM
LC99 [7, 32]: ND (>15) µM
TGI [7, 32]: ND (>15) µM
GI50 [8]: 2.5 µM
TGI [8]: >100 µM
GI50 [9]: 22.4 µM
GI50 [10, 33]: 5 µM
gains in total growth inhibition and cytolytic effects, range ([11]; 4SP65-cisplatin combined): 1.3- to 2.9 fold
LC99, drug in combination (CMB) ([11]; amount of each drug in combination, ratio 14% 4SP65:86% DDP, 48 h): 5.9 µM
GI50 [11, 34]: 2.2 ± 0.4 µM
IC50 [11, 34]: 3 ± 0.3 µM
LC99 [11, 34]: 17.2 µM
TGI [11, 34]: 6.7 ± 0.3 µM
LC99 ([11]; drug alone, 48 h, 4SP65/cisplatin study, listed as DDP): 17.2 ± 5.2 µM
GI50 [12, 34]: 5.3 ± 0.4 µM
IC50 [12, 34]: 6.7 ± 0.6 µM
LC99 [12, 35]: ND (>21) µM
TGI [12, 35]: ND (>21) µM
gains of cytostatic and cytolytic activities, range ([13]; 4SP65-cisplatin combined): 1.7- to 3.5 fold
LC99, drug in combination (CMB) ([13]; amount of each drug in combination, ratio 50% 4SP65:50% DDP, 48 h): 7 µM
GI50 [13, 34]: 3.5 ± 0.7 µM
IC50 [13, 34]: 4.7 ± 0.8 µM
LC99 [13, 34]: 24.4 ± 2.6 µM
TGI [13, 34]: 8.2 ± 1.0 µM
gains of cytostatic and cytolytic activities, range ([14]; 4SP65-cisplatin combined, H460, HMESO1, PPMMill, SKOV3): 1.7- to 6.9 fold
GI50 [15, 36]: 27.2 ± 3.4 µM
IC50 [15, 36]: 40.5 ± 8.1 µM
LC99 [15, 37]: ND (>100) µM
TGI [15, 37]: ND (>100) µM
GI50 [16]: 0.6 µM
TGI [16]: >100 µM
GI50 [17]: 2 µM
GI50 [18]: 3.8 µM
TGI [18]: >100 µM
GI50 [19]: 3 ± 0.4 µM
IC50 [19]: 8.6 ± 1.1 µM
TGI [19]: 6.7 ± 0.7 µM
LC99 [19, 32]: ND (>15) µM

NCCCNCCS [WR1065, 2-[(3-aminopropyl)amino]ethanethiol]
p53 mutants reactivated to some degree [20]: 8/11

CC(=O)O[C@H]1C(=O)[C@@]2(C)[C@H]([C@H](OC(=O)c3ccccc3)[C@]3(O)C[C@H](OC(=O)[C@H](O)[C@@H](NC(=O)c4ccccc4)c4ccccc4)C(C)=C1C3(C)C)[C@]1(OC(C)=O)CO[C@@H]1C[C@@H]2O [Paclitaxel, paclitaxel]
CC50 [21]: > 100 µM
GI50 [21, 33]: 25.8 µM
TGI [21, 33]: >100 µM
CC50 [8]: > 100 µM
GI50 [8]: 0.52 µM
TGI [8]: 5.2 µM
CC50 [9]: > 100 µM
GI50 [9]: 6.4 µM
CC50 [10]: > 100 µM
GI50 [10, 33]: 36.4 µM
TGI [10, 33]: >100 µM
inhibition of tumor xenograft growth compared to tumor size at start of treatment [22]: ~ 50%
CC50 [16]: > 100 µM
GI50 [16]: 5.8 µM
TGI [16]: 90.4 µM
GI50 [17]: 1.9 µM
TGI [17]: >100 µM
CC50 [18]: > 100 µM
GI50 [18]: 9.2 µM
TGI [18]: >100 µM

NCCCNCCSP(=O)(O)O [Amifostine, amifostine, reference compound]
TGI [23]: 254 ± 123 µM
GI50 ([23]; Homo sapiens, HCC38): 78.1 ± 35.7 µM
IC50 ([23]; Homo sapiens, HCC38): 276 ± 92 µM
GI50 [24]: 241 ± 130 µM
TGI ([25]; 48-h treatment, amifostine ND = not definable up to 500 µM): 301 ± 115 µM
GI50 ([25]; Homo sapiens, PC-3, 48 h): 53 ± 10 µM
IC50 ([25]; Homo sapiens, PC-3, 48 h): 103 ± 15 µM
GI50 ([11]; Homo sapiens, TOV21G, 48 h): 47 ± 10 µM
IC50 ([11]; Homo sapiens, TOV21G, 48 h): 57 ± 9 µM
GI50 ([12]; Homo sapiens, SK-OV-3, 48 h): 81 ± 13 µM
IC50 ([12]; Homo sapiens, SK-OV-3, 48 h): 294 ± 119 µM
GI50 [26]: 130 ± 26 µM
GI50 ([13]; Homo sapiens, A549, 48 h): 241 ± 130 µM
IC50 ([13]; Homo sapiens, A549, 48 h): 261 ± 120 µM
GI50 [27]: 150 ± 47 µM
IC50 [27]: 378 ± 122 µM
LC50 [14]: Not definable ^k
cancer cell lines with limited cytostatic effects ([14]; 14 cell lines): 11/14
cytolytic effects ([14]; 14 cell lines): no cytolytic effects
cytolytic effects ([14]; 14 cell lines, listed as amifostine): not found in any cell line
LC99 ([14]; 14 cell lines, highest concentration 500 µM): Not definable ^k
GI50 ([14]; read-out: GI50 average, GI50 values >100 µM in 7/14 cell lines): 149 µM
GI50 ([14]; read-out: GI50 range, GI50 values <100 µM in 4/14 cell lines: HCC38, PC3, SKOV3, TOV21G): 47 to 81 µM
GI50 ([14]; read-out: GI50 range, seven of 14 cell lines): 113 to 378 µM
GI50 ([14]; read-out: average GI50, four cell lines where amifostine GI50 <100 µM): 64.8 µM
TGI average ([14]; only two cell lines, HCC38 and PC3): 278 ± 24 ^j µM
GI50 ([15]; Homo sapiens): 378 ± 122 µM
GI50 [28]: 113 ± 39 µM
GI50 [29]: 126 ± 28 µM
IC50 [29]: 319 ± 105 µM
inhibition of tumor xenograft growth compared to tumor size at start of treatment [22]: ~ 50%

O=C1C2CCN(CC2)C1(CO)CO [PRIMA-1]
IC50 [30]: 66 µM
GI50 [1]: 40 µM
GI50 [2]: 63 µM
IC50 [31]: 141 µM
GI50 [4]: 63 µM

Reference: PMC10419174, “WR1065 conjugated to thiol-PEG polymers as novel anticancer prodrugs: broad spectrum efficacy, synergism, and drug resistance reversal” (Frontiers in Oncology, 2023)
